ChEMBL document CHEMBL3751661, “The influence of 5-HT(2A) activity on a 5-HT(2C) specific in vivo assay used for early identification of multiple acting SERT and 5-HT(2C) receptor ligands” (Bioorg Med Chem Lett, 2016)
The source made the active and inactive calls. No cut-off for these calls is given here.

Experiments:
[1] = target: T1, 5-hydroxytryptamine receptor 2C (Rattus norvegicus, UniProt P08909); experiment: Displacement of [3H]mesulergine from 5HT2C in Sprague-Dawley rat whole brain membranes after 1 hr by liquid scintillation spectrometry; assay type: tissue-based, Membrane
T1 sequence (P08909 whole entry): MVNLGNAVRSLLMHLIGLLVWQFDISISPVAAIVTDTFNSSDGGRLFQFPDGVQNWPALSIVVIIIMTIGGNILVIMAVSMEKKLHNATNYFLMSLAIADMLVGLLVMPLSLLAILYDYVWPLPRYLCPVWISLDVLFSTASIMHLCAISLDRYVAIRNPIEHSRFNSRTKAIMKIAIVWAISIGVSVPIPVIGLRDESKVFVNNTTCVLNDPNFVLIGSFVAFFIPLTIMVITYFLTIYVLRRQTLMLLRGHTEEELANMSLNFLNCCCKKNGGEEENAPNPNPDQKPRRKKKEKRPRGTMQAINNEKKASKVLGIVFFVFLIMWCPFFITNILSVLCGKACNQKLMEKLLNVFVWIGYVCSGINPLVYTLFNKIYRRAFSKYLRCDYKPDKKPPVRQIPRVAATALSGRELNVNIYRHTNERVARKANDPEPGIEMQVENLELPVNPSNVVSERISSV

[2] = target: Sodium-dependent serotonin transporter (Rattus norvegicus, UniProt P31652); experiment: Displacement of [3H]citalopram from SERT in Sprague-Dawley rat whole brain membranes after 1 hr by liquid scintillation spectrometry; assay type: tissue-based, Membrane
Liver microsome = experiment: Intrinsic clearance in human liver microsomes at 2.5 uM; assay type: ADME
[3] = Intrinsic clearance in mouse liver microsomes at 2.5 uM; assay type: ADME
[4] = target: 5-hydroxytryptamine receptor 1A (Homo sapiens) (UniProt P08908); experiment: Displacement of [3H]-8-OH-DPAT from human 5HT1A receptor at 1 uM
[5] = target: T2, 5-hydroxytryptamine receptor 2A (Homo sapiens, UniProt P28223); experiment: Antagonist activity at human 5-HT2A receptor expressed in CHO-K1 cells assessed as inhibition of 5HT-induced Ca2+ release at 10 uM by fluorometry assay; assay type: functional, cell-based
[6] = target: 5-hydroxytryptamine receptor 2A (Rattus norvegicus, UniProt P14842); experiment: Displacement of [3H]ketanserin from 5HT2A in Wistar rat frontal cortex membranes after 1 hr by liquid scintillation spectrometry; assay type: cell membranes, Membrane
Mus musculus [7] = experiment: Inhibition of mCPP-induced hypomotility in NMRI mouse assessed as reductiion in vertical hypoactivity at 40 to 80 mg/kg, ip up to 60 mins; assay type: functional, organism-based
[8] = target: T3, 5-hydroxytryptamine receptor 2C (Homo sapiens) (UniProt P28335); experiment: Antagonist activity at human 5-HT2C receptor expressed in CHO-K1 cells assessed as inhibition of 5HT-induced Ca2+ release at 10 uM by fluorometry assay; assay type: functional, cell-based
T3 sequence (whole entry): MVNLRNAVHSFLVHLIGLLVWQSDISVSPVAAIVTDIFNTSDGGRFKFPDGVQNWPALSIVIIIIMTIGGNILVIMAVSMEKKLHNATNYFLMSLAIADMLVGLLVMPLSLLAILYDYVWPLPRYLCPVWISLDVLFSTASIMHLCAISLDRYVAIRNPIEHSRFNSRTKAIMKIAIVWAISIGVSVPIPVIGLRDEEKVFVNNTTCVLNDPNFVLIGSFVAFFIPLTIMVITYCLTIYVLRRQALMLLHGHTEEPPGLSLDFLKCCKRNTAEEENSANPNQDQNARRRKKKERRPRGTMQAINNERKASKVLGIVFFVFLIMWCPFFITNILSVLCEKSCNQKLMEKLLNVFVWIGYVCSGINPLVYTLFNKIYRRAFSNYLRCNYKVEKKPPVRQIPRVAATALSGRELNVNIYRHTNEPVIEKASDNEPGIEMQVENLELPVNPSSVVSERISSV

Mus musculus [9] = experiment: Inhibition of hypomotility in NMRI mouse assessed as reduction in rearing at 20 mg/kg, ip in presence of 0.1 to 1 mg/kg, sc selective 5-HT2C antagonist SB-242084; assay type: functional, organism-based
Mus musculus [10] = experiment: Effect on spontaneous rearing behavior in NMRI mouse at 5 to 80 mg/kg, ip; assay type: ADME, organism-based; settings: in vivo
[11] = target: 5-hydroxytryptamine receptor 2B (Homo sapiens) (UniProt P41595); experiment: Displacement of [3H]-LSD from human 5HT2B receptor at 1 uM
Mus musculus [12] = experiment: Induction of motor depression in C57BL/6J mouse assessed as total duration of immobility was measured over a period of 6 mins at 25 to 100 mg/kg, ip by tail suspension test; assay type: organism-based; settings: in vivo, 0.1 h
[13] = target: Sodium-dependent serotonin transporter (Rattus norvegicus) (UniProt P31652); experiment: Displacement of [3H]citalopram from SERT in Sprague-Dawley rat whole brain membranes at 1 uM after 1 hr by liquid scintillation spectrometry; assay type: tissue-based; settings: Membrane
Mus musculus [14] = experiment: Inhibition of mCPP-induced hypomotility in ip dosed NMRI mouse assessed as rearing count up to 60 mins; assay type: functional; settings: 1 h
[15] = Efflux ratio of the compound from apical to basolateral side to basolateral to apical side in human vinblastine-treated Caco2 cells; assay type: ADME, cell-based; settings: caco-2
[16] = target: Sodium-dependent serotonin transporter (Homo sapiens, UniProt P31645); experiment: Binding affinity to SERT (unknown origin)
[17] = Apparent permeability of the compound from apical to basolateral side in human vinblastine-treated Caco2 cells; assay type: ADME, cell-based; settings: caco-2
Mus musculus [18] = experiment: Inhibition of mCPP-induced hypomotility in NMRI mouse assessed as reductiion in vertical hypoactivity at 20 to 40 mg/kg, ip up to 60 mins; assay type: functional, organism-based
Mus musculus [19] = experiment: Induction of motor depression in C57BL/6J mouse assessed as total duration of immobility was measured over a period of 6 mins at 20 to 80 mg/kg, ip by tail suspension test; assay type: organism-based; settings: in vivo, 0.1 h
Mus musculus [20] = experiment: Potentiation of mCPP-induced hypomotility in NMRI mouse at 20 to 40 mg/kg, ip up to 60 mins; assay type: ADME, organism-based; settings: in vivo, 1 h
[21] = target: T4, 5-hydroxytryptamine receptor 2C (Homo sapiens, UniProt P28335); experiment: Binding affinity to 5HT2C (unknown origin)
T4 sequence (P28335 whole entry): T3 sequence (whole entry)

[22] = target: T2, 5-hydroxytryptamine receptor 2A; experiment: Binding affinity to 5HT2A (unknown origin)

Sequence of Sodium-dependent serotonin transporter (Rattus norvegicus, UniProt P31652) (P31652 whole entry): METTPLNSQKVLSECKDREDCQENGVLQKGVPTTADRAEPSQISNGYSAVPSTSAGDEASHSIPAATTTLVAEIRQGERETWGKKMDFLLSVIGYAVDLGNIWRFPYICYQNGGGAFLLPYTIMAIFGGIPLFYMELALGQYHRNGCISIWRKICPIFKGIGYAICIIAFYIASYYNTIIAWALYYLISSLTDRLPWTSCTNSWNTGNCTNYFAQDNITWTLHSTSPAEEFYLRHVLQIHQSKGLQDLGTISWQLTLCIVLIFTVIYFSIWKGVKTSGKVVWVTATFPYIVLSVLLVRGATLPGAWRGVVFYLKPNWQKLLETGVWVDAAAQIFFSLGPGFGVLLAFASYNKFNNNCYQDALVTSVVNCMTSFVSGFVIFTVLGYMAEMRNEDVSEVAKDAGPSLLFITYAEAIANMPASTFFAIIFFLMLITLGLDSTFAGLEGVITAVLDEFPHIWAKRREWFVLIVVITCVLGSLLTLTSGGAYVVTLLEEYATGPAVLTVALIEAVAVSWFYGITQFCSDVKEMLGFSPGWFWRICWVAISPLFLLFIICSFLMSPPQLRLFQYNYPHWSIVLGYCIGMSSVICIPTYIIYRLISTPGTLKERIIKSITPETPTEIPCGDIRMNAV
Sequence of 5-hydroxytryptamine receptor 1A (Homo sapiens) (P08908 whole entry, looked up): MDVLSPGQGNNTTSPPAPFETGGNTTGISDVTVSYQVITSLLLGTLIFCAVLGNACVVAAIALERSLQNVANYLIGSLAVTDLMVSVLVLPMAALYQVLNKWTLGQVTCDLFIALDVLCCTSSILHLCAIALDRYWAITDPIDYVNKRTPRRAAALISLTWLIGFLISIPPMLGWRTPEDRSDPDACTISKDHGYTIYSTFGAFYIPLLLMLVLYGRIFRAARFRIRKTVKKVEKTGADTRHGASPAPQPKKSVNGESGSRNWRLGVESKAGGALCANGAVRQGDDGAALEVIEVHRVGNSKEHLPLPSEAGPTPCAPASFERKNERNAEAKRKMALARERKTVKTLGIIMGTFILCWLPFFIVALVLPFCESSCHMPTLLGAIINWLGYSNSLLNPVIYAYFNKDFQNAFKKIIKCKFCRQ
Sequence of 5-hydroxytryptamine receptor 2B (Homo sapiens) (P41595 whole entry): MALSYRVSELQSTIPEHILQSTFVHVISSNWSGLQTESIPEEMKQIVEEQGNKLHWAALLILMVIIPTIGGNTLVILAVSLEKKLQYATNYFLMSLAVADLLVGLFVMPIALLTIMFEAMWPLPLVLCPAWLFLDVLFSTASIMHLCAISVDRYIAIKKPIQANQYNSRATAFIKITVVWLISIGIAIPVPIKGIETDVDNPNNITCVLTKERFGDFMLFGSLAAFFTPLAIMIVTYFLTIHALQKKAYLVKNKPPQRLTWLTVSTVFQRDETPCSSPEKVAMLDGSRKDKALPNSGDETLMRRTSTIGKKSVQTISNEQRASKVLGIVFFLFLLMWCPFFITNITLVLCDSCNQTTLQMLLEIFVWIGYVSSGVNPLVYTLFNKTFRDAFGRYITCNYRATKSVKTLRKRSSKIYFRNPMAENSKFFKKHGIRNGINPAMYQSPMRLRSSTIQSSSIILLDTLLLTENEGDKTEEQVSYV
T2 sequence (P28223 whole entry): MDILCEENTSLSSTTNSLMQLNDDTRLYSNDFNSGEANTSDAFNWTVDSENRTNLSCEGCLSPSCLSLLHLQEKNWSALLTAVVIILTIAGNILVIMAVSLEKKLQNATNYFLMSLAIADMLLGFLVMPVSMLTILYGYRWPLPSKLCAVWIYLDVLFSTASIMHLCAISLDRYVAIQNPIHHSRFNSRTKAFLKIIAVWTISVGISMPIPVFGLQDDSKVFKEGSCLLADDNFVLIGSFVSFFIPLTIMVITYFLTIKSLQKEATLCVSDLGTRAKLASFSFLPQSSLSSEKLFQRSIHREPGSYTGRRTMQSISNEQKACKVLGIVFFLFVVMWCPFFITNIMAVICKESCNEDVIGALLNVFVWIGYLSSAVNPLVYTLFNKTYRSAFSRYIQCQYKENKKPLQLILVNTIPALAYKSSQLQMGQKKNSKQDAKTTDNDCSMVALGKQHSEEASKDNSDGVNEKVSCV
Sequence of 5-hydroxytryptamine receptor 2A (Rattus norvegicus, UniProt P14842) (P14842 whole entry): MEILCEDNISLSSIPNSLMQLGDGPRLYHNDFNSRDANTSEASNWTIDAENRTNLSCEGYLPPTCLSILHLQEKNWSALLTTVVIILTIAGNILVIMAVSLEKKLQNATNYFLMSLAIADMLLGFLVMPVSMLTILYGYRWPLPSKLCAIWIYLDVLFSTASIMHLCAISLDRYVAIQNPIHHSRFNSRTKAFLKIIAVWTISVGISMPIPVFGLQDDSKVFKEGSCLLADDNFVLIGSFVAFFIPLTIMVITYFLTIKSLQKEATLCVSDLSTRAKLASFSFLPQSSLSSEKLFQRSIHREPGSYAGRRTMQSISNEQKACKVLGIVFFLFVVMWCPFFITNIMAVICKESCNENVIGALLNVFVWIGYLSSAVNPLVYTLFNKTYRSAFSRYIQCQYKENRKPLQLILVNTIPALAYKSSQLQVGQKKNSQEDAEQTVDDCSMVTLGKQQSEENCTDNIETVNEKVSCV
Sequence of Sodium-dependent serotonin transporter (Homo sapiens, UniProt P31645) (P31645 whole entry): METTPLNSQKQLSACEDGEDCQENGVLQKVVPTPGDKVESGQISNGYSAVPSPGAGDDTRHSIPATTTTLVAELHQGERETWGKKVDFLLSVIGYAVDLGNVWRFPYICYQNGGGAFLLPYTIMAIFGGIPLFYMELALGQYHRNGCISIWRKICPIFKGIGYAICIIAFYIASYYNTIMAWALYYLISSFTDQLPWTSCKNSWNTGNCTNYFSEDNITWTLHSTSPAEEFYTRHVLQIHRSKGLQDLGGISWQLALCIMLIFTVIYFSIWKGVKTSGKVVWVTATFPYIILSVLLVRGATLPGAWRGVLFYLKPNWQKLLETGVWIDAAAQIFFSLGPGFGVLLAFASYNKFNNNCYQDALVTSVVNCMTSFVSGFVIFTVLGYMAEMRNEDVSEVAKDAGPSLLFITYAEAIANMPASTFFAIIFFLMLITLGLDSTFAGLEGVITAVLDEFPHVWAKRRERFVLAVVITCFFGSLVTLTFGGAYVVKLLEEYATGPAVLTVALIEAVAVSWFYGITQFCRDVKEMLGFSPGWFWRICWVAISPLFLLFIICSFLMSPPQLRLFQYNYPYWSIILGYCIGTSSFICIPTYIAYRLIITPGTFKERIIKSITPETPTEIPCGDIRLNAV
Sequence of Sodium-dependent serotonin transporter (Rattus norvegicus) (P31652 whole entry): as the sequence (P31652 whole entry) above

Row | SMILES | Ki [1] [nM] | Ki [2] [nM] | CLH (Liver microsome) [mL/min/g] | CLH [3] [mL/min/g] | Ki [6] [nM] | other results
1 | CN(C)CCN(Cc1ccccc1)S(=O)(=O)c1ccc(NC(=O)N2CCN(c3cccc(Cl)c3)CC2)cc1 | 95.6 | 36.8 | – | – | – | –
2 | CCn1ccc2cc(NC(=O)Nc3ccc(S(=O)(=O)N(CCN(C)C)Cc4ccccc4)cc3)ccc21 | 26.5 | 65.6 | – | – | – | –
3 | CN(C)CCN(Cc1ccccc1)S(=O)(=O)c1ccc(N2CCN(c3cccc(Cl)c3)CC2)cc1 | 8.1 | 29.7 | 1.43 | 1.57 | 9.9 | inhibition [4]: -7%; inhibition [5]: Active; Activity (Mus musculus [7]): inactive; inhibition [8]: Active; Activity (Mus musculus [9]): inactive; Activity (Mus musculus [10]): Toxic; inhibition [11]: 82%; Activity (Mus musculus [12]): Toxic
4 | CN(C)CCN(Cc1ccccc1)S(=O)(=O)c1ccc(C(=O)N2CCN(c3cccc(Cl)c3)CC2)cc1 | 477 | 110 | – | – | – | –
5 | Cc1cc2c(cc1Cl)N(C(=O)Nc1ccc(Oc3cccnc3C)nc1)CC2 [SB-242084] | 0.16 | 1770 | – | – | 274 | –
6 | Cc1cc2c(cc1Cl)N(C(=O)Nc1ccc(S(=O)(=O)N(CCN(C)C)Cc3ccccc3)cc1)CC2 | 43.5 | – | – | – | – | inhibition [13]: 11%
7 | Cc1cc2c(cc1Cl)N(C(=O)Nc1ccc(OC(CCN(C)C)c3ccccc3)cc1)CC2 (stereo unspecified) | 0.6 | 65.5 | 0.06 | 0.9 | 138 | ED50 (Mus musculus [14]): 17.9 mg/kg
8 | COc1ccc(NC(=O)Nc2ccc(OC(CCN(C)C)c3ccccc3)cc2)cc1Cl (stereo unspecified) | – | – | 0.68 | 1.25 | 233 | Ratio [15]: 2.2; inhibition [4]: -4%; ED50 (Mus musculus [14]): 13.5 mg/kg; inhibition [11]: 87%
9 | Clc1cccc(N2CCNCC2)c1 [CHLOROPHENYLPIPERAZINE] | – | – | – | – | – | Ki [16]: 271 nM
10 | Cc1ccc(NC(=O)Nc2ccc(OC(CCN(C)C)c3ccccc3)cc2)cc1Cl (stereo unspecified) | 3 | – | – | – | – | –
11 | COc1ccc(NC(=O)Nc2ccc(S(=O)(=O)N(CCN(C)C)Cc3ccccc3)cc2)cc1Cl | 16.3 | 93 | – | – | – | –
12 | CN(C)CCN(Cc1ccccc1)S(=O)(=O)c1ccc(NC(=O)Nc2ccc3c(ccn3C)c2)cc1 | 14.5 | 26.2 | 3.94 | 1.07 | 58.4 | Ratio [15]: 2.2; Papp A→B [17]: 8.6 ×10⁻⁶ cm/s; inhibition [4]: -4%; Activity (Mus musculus [18]): inactive; inhibition [5]: Active; Activity (Mus musculus [19]): Toxic; Activity (Mus musculus [20]): Toxic; inhibition [8]: Active; inhibition [11]: 86%
13 | CN(C)CCC(Oc1ccc(NC(=O)Nc2ccc3c(ccn3C)c2)cc1)c1ccccc1 (stereo unspecified) | – | – | 2.66 | 3.25 | 239 | Ratio [15]: 5.3
14 | CN(C)CCN(Cc1ccccc1)S(=O)(=O)c1cccc(N2CCN(c3cccc(Cl)c3)CC2)c1 | 6.1 | 509 | – | – | – | –
15 | CN(C)CCN(Cc1ccccc1)S(=O)(=O)c1ccc(I)cc1 | 11.6 | 20.4 | 1.36 | 14.19 | 3 | Ki [16]: 30.4 nM; Ki [21]: 8 nM; Ki [22]: 1.8 nM
16 | Cc1ccc(NC(=O)Nc2ccc(S(=O)(=O)N(CCN(C)C)Cc3ccccc3)cc2)cc1Cl | 4.5 | 209 | – | – | – | –
